Consider one molecule from paper PMC3790851, “Improved Mass Spectrometry Assay For Plasma Hepcidin: Detection and Characterization of a Novel Hepcidin Isoform” (PLoS ONE, 2013).

What is called EC50 is the concentration needed to bring the measured effect to its halfway point. Usually share remaining stands for the share of the starting amount still present when the sample was taken.

The target in data set [1] is T1, green fluorescent protein (GFP)-fused human ferroportin (Homo sapiens, UniProt Q9NP59).
T1 construct: expressed in transfected cells
T1 sequence (Q9NP59 1-571): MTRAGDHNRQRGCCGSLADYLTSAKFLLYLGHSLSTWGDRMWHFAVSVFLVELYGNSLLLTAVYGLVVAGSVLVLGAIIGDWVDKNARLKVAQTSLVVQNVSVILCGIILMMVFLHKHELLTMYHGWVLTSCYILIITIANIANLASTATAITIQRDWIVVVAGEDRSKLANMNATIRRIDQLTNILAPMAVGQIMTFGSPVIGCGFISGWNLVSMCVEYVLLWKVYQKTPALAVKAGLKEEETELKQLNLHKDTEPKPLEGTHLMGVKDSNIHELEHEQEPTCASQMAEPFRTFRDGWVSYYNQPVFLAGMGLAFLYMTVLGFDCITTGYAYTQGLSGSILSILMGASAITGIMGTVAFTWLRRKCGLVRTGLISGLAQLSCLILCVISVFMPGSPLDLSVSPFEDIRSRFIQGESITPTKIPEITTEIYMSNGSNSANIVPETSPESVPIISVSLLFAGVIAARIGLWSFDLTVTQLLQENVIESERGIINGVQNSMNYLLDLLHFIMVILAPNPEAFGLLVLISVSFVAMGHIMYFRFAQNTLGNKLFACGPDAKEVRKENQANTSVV
Description: Hepcidin bioactivity assay: GFP-ferroportin internalization and degradation. In kind it is cell-based. Particulars: stable cell line, inducible GFP-fused human ferroportin; fluorescence in triplicate wells; four parameter logistic fit; 95% confidence interval: hepcidin-24 126.8 nM - 289.2 nM, hepcidin-25 12.2 nM –17.8 nM; read-out: EC50 for ferroportin internalization and degradation. The source says: A stable cell line engineered for inducible expression of green fluorescent protein (GFP)-fused human ferroportin was used as a test system to determine hepcidin-24 activity relative to hepcidin-25, 22 and 20. In this cell system, ferroportin internalization and degradation provided a means to quantify hepcidin activity. The assay was implemented basically as described by Nemeth et al., [33] except that fluorescence was quantified in triplicate wells on a microplate reader. To determine EC50 values for hepcidin-25 and hepcidin-24, a curve was fitted by nonlinear regression with a four parameter logistic equation using Prism v5 (GraphPad).
Figure 5 Hepcidin-mediated ferroportin internalization. Different concentrations of synthetic hepcidin-25, -24, -22 and -20 (indicated in nM on the horizontal axis) were added to the growth medium of a stable cell line that expresses green fluorescent protein-fused ferroportin (GFP-FPN). Hepcidin-mediated GFP-FPN internalization and degradation was quantified by measuring cellular fluorescence levels in arbitrary units.

Data set [2] in a line: in vitro. Particulars: for remaining at 4320 h: human. The procedure:
Serum samples from healthy controls that were used in this study concerned leftover aliquots (stored at −80°C) that were collected in February 2011 [18]. In addition, citrate plasma, heparin plasma, EDTA plasma and serum for stability studies was drawn in the afternoon from healthy volunteers (n = 5), known for having fasted morning hepcidin levels above the lower limit of detection (>0.5 nM) in September 2012. Fresh samples were measured within 2–4 hrs hours after blood drawing and stored in aliquots at various temperatures for prolonged incubation.
Heparin plasma QC samples (n = 2), high and low (HiQC2011 and LoQC2011), were obtained in November 2011 by pooling sample leftover samples from IC patients and iron-depleted HFE-hemochromatosis patients, respectively. Serum QC samples (n = 2), high and low (HiQC2009 and LoQC2009), were obtained in April 2009 from 2 blood donors from the local blood donation centre. To obtain the high QC sample, serum of one of the donors with a native hepcidin concentration <1 nM was spiked with synthetic hepcidin-25 from Peptide International (PI, Louisville, KY, USA) to a concentration of 9 nM.
WCX-TOF MS was performed between October 2011 and March 2013 as described previously by a combination of WCX bead-based hepcidin enrichment followed by TOF-MS [6]. As internal standards for quantification were used: i) synthetic hepcidin-24 (custom made Peptide International, 2673.9 Da; [5]); ii) novel custom made heavy hepcidin-25^+40 (see below, Table 1). Mass-to-charge (m/z) spectra were generated by using MALDI-TOF MS (Microflex LT, Bruker Daltonics). Spectra were analyzed by using Bruker Daltonics FlexAnalysis software. A detailed protocol of this method is described in [6]. Total hepcidin concentration was defined as the sum of hepcidin-25, -24, -22, and -20 concentrations.
Using the novel heavy hepcidin-25 internal standard, we assessed changes in hepcidin-25 and the smaller isoforms in various samples containing various anticoagulants ex vivo at room temperature (RT), 4°C, −20°C and −80°C. More specifically, changes in hepcidin concentrations relative to those found in freshly collected samples were determined i) at storage at RT and 4°C on day 0 (fresh samples), 1 (14–22 hrs), 2, 3, and 7 days after sampling/storage, ii) at −20°C after 1 week, and after 1, 4 and 6 months of storage and iii) at −80°C at after 6 months of storage. We also assessed the effect of the addition of protease inhibitors on the stability of hepcidin concentrations of heparin plasma of IC patients at RT during a 1 week storage. To this end, before storage we used 1 tablet of protease inhibitor (Complete, Mini, Roche Diagnostics, Mannheim, Germany) solved in 200 µL PBS, of which 20 µL was added to 1 ml plasma. Finally, we used our QC charts to assess the stability of hepcidin concentrations in heparin plasma and serum QC aliquots stored at −80°C for 2 years.

Assay in data set [3]: not given
This is another data set of the same source.

Data set [4] is described as follows: in vitro. The conditions noted are these: human, heparin plasma.
Description: Samples were used for measurement of hepcidin between 4–7 hrs after blood drawing and/or pooled and/or stored in aliquots at various temperatures for prolonged periods of time.
Mass-to-charge (m/z) spectra were generated by using MALDI-TOF MS (Microflex LT, Bruker Daltonics). Spectra were analyzed by using Bruker Daltonics FlexAnalysis software. […] Total hepcidin concentration was defined as the sum of hepcidin-25, -24, -22, and -20 concentrations.
The conditions of data set [5]: serum from 12 healthy controls; stable for; ref 35 Itkonen et al.; cited from earlier work.
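Wherever Hepcidin level after one week at -20°C, EDTA plasma is given: hepcidin in stored plasma or serum quantified by MALDI-TOF MS against a heavy hepcidin-25 internal standard, expressed relative to concentrations in freshly collected samples.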
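Wherever no significant change at -20°C for is given: hepcidin in stored plasma or serum quantified by MALDI-TOF MS against a heavy hepcidin-25 internal standard, expressed relative to concentrations in freshly collected samples.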
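Wherever stable at -20°C for is given: hepcidin in stored plasma or serum quantified by MALDI-TOF MS against a heavy hepcidin-25 internal standard, expressed relative to concentrations in freshly collected samples.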

Take `CC[C@H](C)[C@@H]1NC(=O)[C@@H](NC(=O)[C@@H](NC(=O)[C@@H]2CCCN2C(=O)[C@H](Cc2ccccc2)NC(=O)[C@H](Cc2c[nH]cn2)NC(=O)[C@@H](NC(=O)[C@@H](N)CC(=O)O)[C@@H](C)O)[C@@H](C)CC)CSSC[C@@H](C(=O)N[C@@H](CCCCN)C(=O)N[C@H](C(=O)O)[C@@H](C)O)NC(=O)[C@@H]2CSSC[C@H](NC(=O)[C@H](Cc3ccccc3)NC1=O)C(=O)N[C@H]1CSSC[C@H](NC(=O)[C@H](CCCCN)NC(=O)[C@H](CO)NC(=O)[C@H](CCCNC(=N)N)NC(=O)[C@H](Cc3c[nH]cn3)NC(=O)[C@@H]3CSSC[C@H](NC(=O)CNC1=O)C(=O)N3)C(=O)NCC(=O)N[C@@H](CCSC)C(=O)N2` [Hepcidin-25]: the EC50 in data set [1] worked out at 14.7 nM. In addition, the “stable at -80°C for, QC heparin plasma” value in data set [2] (QC heparin plasma samples, heavy hepcidin internal standard) was “at least 1.5 years”. In addition, the “stable at -80°C for, QC serum” value in data set [2] (QC serum samples, former hepcidin-24 internal standard) came to 2 years. In addition, in data set [2] (average, 5 controls, CV 5), the “Hepcidin level after 6 months at -80°C, EDTA plasma” value was found to be 96% and the “Hepcidin level after 6 months at -80°C, citrate plasma” value stood at 96%. Besides, the share remaining at 4320 h in data set [2] (heparin plasma) turned out to be 95%. Moreover, the share remaining at 4320 h in data set [2] (serum) came out at 94%. In data set [2] (serum, heparin, EDTA and citrate plasma, 5 healthy volunteers, not significant), the “average decrease in hepcidin-25 after 6 months at -80°C” value is 4–6%. In addition, the “Hepcidin level after one day at 4°C, EDTA plasma” value (average, % of fresh, 10 IC patients and 5 controls, results <1.0 nM deleted, CV (Hep-25/-24/-22/-20) 11/6/11/22, n = 15/8/6/9) is on record as 101%. In addition, where the note is “average, % of fresh, 7 days, 10 IC patients and 5 controls, CV (Hep-25/-24/-22/-20) 9/8/18/21, n = 15/8/6/9, hepcidin-20 in stored EDTA plasma unreliable (additional peak)”, the “Hepcidin level after one week at 4°C, EDTA plasma” value was determined as 101%. Where the note is “heparin and EDTA plasma (10 IC patients, 5 controls), citrate plasma and serum (5 controls)”, the “stability at 4°C for 0–7 days” value is listed as “remained stable”. Besides, the “stable at -20°C for” value in data set [3] (EDTA and heparin plasma of 10 intensive care patients and 5 controls) was “at least 4 weeks”. Moreover, the “Hepcidin level after one week at -20°C, EDTA plasma” value in data set [3] (average, % of fresh, 10 IC patients and 5 controls, CV (Hep-25/-24/-22/-20) 11/12/11/28, n = 15/8/6/9, hepcidin-20 unreliable (additional peak)) is listed as 96%. For the same molecule, the “hepcidin-25 relative to fresh samples upon freezing” value in data set [3] (heparin samples at 7 days, -20°C, IC + control n = 15, CV 8%) was determined as 95%. For the same molecule, in data set [3] (serum, heparin, EDTA and citrate plasma of healthy controls (n = 5)), the “no significant change at -20°C for” value was “at least 6 months”. In addition, the fraction remaining at 168 h in data set [4] came out at 99%. In addition, the “stability at room temperature” value in data set [5] is 1 days.
